The values that follow come from patent US9814709B2, “Bruton's tyrosine kinase inhibitor” (HEFEI INSTITUTES OF PHYSICAL SCIENCE, CHINESE ACADEMY OF …, priority 2014, dated 2017).

Assay in all cases: Cancer cell growth, Cell Titer-Glo
Holding throughout (format): cell-based
A general note: Cellular ATP, detected with luciferase, serves as a proxy for viable cell number.

In assay [1] the test system is prostate cancer cells RV-1. As to conditions: RV-1, 72 hrs; read-out: Half inhibitory concentration IC50. The text has this: (§1) We further assessed the selectivity of Compound 1 to inhibit the proliferation of cancer cells, by testing the effect of Btk inhibitor on the growth of cancer cells. In the example, we used B-lymphoma cell Ramos, cervical cancer cells HeLa, prostate cancer cells DU145, RV-1 and C4-2, colon cancer cells HCT116, blood cancer cells K562, B-cell lymphoma cells U2932, diffuse large B-cell lymphoma cells OCI-LY10, diffuse histiocytic lymphoma cells SU-DHL-2, diffuse large B-cell lymphoma cells TMD8, human non-small cell lung cancer cells H1975 (expressing EGFR L858R/T790M double mutant gene), human lung adenocarcinoma cells A549 (expressing wild-type EGFR gene), human non-small cell lung cancer cells H460 (expressing wild-type EGFR gene), mantel cell lymphoma (MCL) cells Z-138, EB virus infected human peripheral lymphocyte cells JVM-2, MCL cells REC-1, leukemia cells AML-3, acute promyelocytic leukemia cell line NB-4(Lu+), MDS-RAEB (myelodysplastic syndrome-excessive blasts) cell line SKM-1 human leukemia cell Nomo-1, human B-cell leukemia cell line NALM6, human leukocyte leukemia cells HEL, human T-cell lymphoma cells PF-382, acute myelocytic leukemia (AML) cell line MOLM14, AML cell line MOLM13, human Burkitt's lymphoma cells Namalwa, mouse pro-B cells BaF3, all of where were purchased from ATCC. Also used were mouse TEL-EGFR-BaF3 (stably expressing TEL-EGFR activated kinase), mouse TEL-EGFR/T790-BaF3 cells (stably expressing TEL-EGFR-T790M activated mutant kinase), mouse TEL-EGFR/L858R-BaF3 cells (stably expressing TEL-EGFR-L858R activated mutant kinase), mouse TEL-EGFR/T790/L858R-BaF3 (stably expressing TEL-EGFR-T790M/L858R activated mutant kinase), mouse TEL-BMX-BaF3 cells (stably expressing TEL-BMX activated kinase), mouse TEL-JAK1-BaF3 cells (stably expressing TEL-JAK1 activated kinase), mouse TEL-JAK2-BaF3 cells (stably expressing TEL-JAK2 activated kinase), mouse TEL-JAK3-BaF3 cells (stably expressing TEL-JAK3 activated kinase), where were all established by our laboratory via the following method: the kinase domain sequences of human EGFR, BMX, JAK1, JAK2, JAK3 were amplified respectively by PCR, and these kinase were inserted into the MSCV-Puro vectors with N-terminal TEL segment (Clontech); if there was a mutation, the mutation of the corresponding site was conducted by Site-Directed Mutagenesis kit (Stratagene); the resultants were stably transfected into mouse BaF3 cells by the means of retrovirus, and the IL-3 growth factors were removed, and eventually the EGFR, BMX, JAK1, JAK2, JAK3-transferred protein dependent cell lines were obtained.
(§2) In the example, different concentrations (0.000508 μM, 0.00152 μM, 0.00457 μM, 0.0137 μM, 0.0411 μM, 0.123 μM, 0.370 μM, 1.11 μM, 3.33 μM, 10 μM) of Compound 1 and Compound 19 were added into above cells, and were incubated for 72 hrs. The number of viable cells was determined by quantitating ATP in viable cells using Cell Titer-Glo® (Promega, U.S.) chemiluminescence cell viability assay kit.

In assay [2] the test system is B-lymphoma cell Ramos. As to conditions: Homo sapiens, 72 hrs, read-out: Half inhibitory concentration IC50.
Text: as §1, §2

For assay [3], the system named is diffuse large B-cell lymphoma cells OCI-LY10. The settings on record: Homo sapiens; OCI-LY10, 72 hrs; read-out: Half inhibitory concentration IC50.
Text: as §1, §2

Assay [4] relates to MDS-RAEB cell line SKM-1. As to conditions: Homo sapiens; SKM-1, 72 hrs; read-out: Half inhibitory concentration IC50.
Text: as §1, §2

Assay [5] deals with acute myelocytic leukemia (AML) cell line MOLM14. The settings on record: Homo sapiens, MOLM-14; MOLM14, 72 hrs; read-out: Half inhibitory concentration IC50.
Text: as §1, §2

Assay [6] has as its system blood cancer cells K562. The settings on record: Homo sapiens; K562, 72 hrs; read-out: Half inhibitory concentration IC50.
Text: as §1, §2

For assay [7], the system named is colon cancer cells HCT116. As to conditions: Homo sapiens, HCT-116; HCT116, 72 hrs; read-out: Half inhibitory concentration IC50.
Text: as §1, §2

Assay [8] concerns human Burkitt's lymphoma cells Namalwa. As to conditions: Burkitts lymphoma cell, 72 hrs, read-out: Half inhibitory concentration IC50.
Text: as §1, §2

The subject of assay [9] is human T-cell lymphoma cells PF-382. The settings on record: PF-382, 72 hrs, read-out: Half inhibitory concentration IC50.
Text: as §1, §2

Assay [10] deals with AML cell line MOLM13. As to conditions: Homo sapiens, MOLM-13; MOLM13, 72 hrs; read-out: Half inhibitory concentration IC50.
Text: as §1, §2

The test system of assay [11] is mantel cell lymphoma (MCL) cells Z-138. The settings on record: Homo sapiens; Z-138, 72 hrs; read-out: Half inhibitory concentration IC50.
Text: as §1, §2

For assay [12], the system named is human leukocyte leukemia cells HEL. The settings on record: 72 hrs, read-out: Half inhibitory concentration IC50.
Text: as §1, §2

In assay [13] the test system is human B-cell leukemia cell line NALM6. The settings on record: NALM-6, NALM6, 72 hrs, read-out: Half inhibitory concentration IC50.
Text: as §1, §2

Assay [14] concerns prostate cancer cells C4-2. The settings on record: C4-2, 72 hrs; read-out: Half inhibitory concentration IC50.
Text: as §1, §2

Assay [15] concerns human non-small cell lung cancer cells H1975 (expressing EGFR L858R/T790M double mutant gene). As to conditions: NCI-H1975, H1975, 72 hrs, read-out: Half inhibitory concentration IC50.
Text: as §1, §2

The test system of assay [16] is MCL cells REC-1. As to conditions: Homo sapiens, Rec1; REC-1, 72 hrs; read-out: Half inhibitory concentration IC50.
Text: as §1, §2

The test system of assay [17] is diffuse large B-cell lymphoma cells TMD8. The settings on record: Homo sapiens; TMD8, 72 hrs; read-out: Half inhibitory concentration IC50.
Text: as §1, §2

The subject of assay [18] is human leukemia cell Nomo-1. As to conditions: Nomo-1, 72 hrs, read-out: Half inhibitory concentration IC50.
Text: as §1, §2

Assay [19] has as its system prostate cancer cells DU145. As to conditions: Homo sapiens, DU-145; DU145, 72 hrs; read-out: Half inhibitory concentration IC50.
Text: as §1, §2

Where only a bound is given, the exact number is not on record here.

As for `C=CC(=O)Nc1cc(-n2c(=O)ccc3cnc4ccc(-n5cccn5)cc4c32)ccc1C` [Compound 1, N-(2-methyl-5-(2-oxo-9-(1H-pyrazol-1-yl)benzo[H][1,6]naphthyridin-1(2H)-yl)phenyl)acrylamide], the IC50 in assay [1] is above 10 µM; in assay [2], above 10 µM; in [3], above 10 µM; in assay [4], 1.5 µM; in assay [5], 1.5 µM; in assay [6] it was above 10 µM. The IC50 in assay [7] was above 10 µM; in assay [8] it was 4.5 µM; in [9], 3.49 µM; in assay [10], 0.59 µM; in assay [11], 8.5 µM; in assay [12], 1.8 µM. In addition, the IC50 in assay [13] is 1.17 µM; in [14], above 10 µM; in assay [15] it was 3.81 µM; in [16], 1.6 µM; in [17] it was 3.43 µM; in [18] it was 4.9 µM. The IC50 in assay [19] is above 10 µM.

Turning to `CCC(=O)Nc1cc(-n2c(=O)ccc3cnc4ccc(-n5cccn5)cc4c32)ccc1C` [Compound 19, N-(2-methyl-5-(2-oxo-9-(1H-pyrazol-1-yl)benzo[H][1,6]naphthyridin-1(2H)-yl)phenyl) propionamide], the IC50 in [1], in assay [2], in [3], in assay [4], in assay [5] and in assay [6] was above 10 µM in each case. Further, the IC50 in assay [7], in [8], in assay [9], in [10], in [11] and in [12] was above 10 µM in each case. For the same molecule, the IC50 in [13], in assay [14], in assay [15], in assay [16], in assay [17] and in assay [18] was above 10 µM in each case. In addition, the IC50 in assay [19] is above 10 µM.
